≈ marks a conversion by molar mass, not a printed value. Read-outs that look alike come from different tables or passages of the source.
Legend:
[1] = tested on: Mycobacterium chelonae (ATCC 14472); experiment: High resolution MIC test, pure culture, 1/10x TSB; format: cell-based; conditions: M. chelonae, 24 hours at 37° C.
Method: (§1) The lowest concentration of microbicide required to inhibit bacteria was determined by a high resolution MIC test. Varying amounts of each microbicide were added to media in a 96-well microtiter plate. The media used for the MIC tests was 10% Trypicase Soy Broth ( 1/10× TSB). […] serial dilutions were performed on a Biomek 2000 Workstation to obtain a range of closely spaced concentrations of microbicides. A cell suspension of stationary phase microorganisms, adjusted to provide 10^6 colony forming units (CFU)/mL in each well for bacteria was added to the microtiter plate. The microtiter plates were incubated for 24 hours at 30° C. for Mycobacterium immunogenum and 37° C. for Mycobacterium chelonae. The presence or absence of microbial growth was determined by measuring the turbidity in each well using a Thermomax microplate reader set at an absorbance of 650 nm. The lowest concentration of compound in which no growth was observed was considered the MIC value for the microbicide. The MIC value for each microbicide was determined from the average of four determinations for bacteria.
(§2) Bacterial strains tested included Mycobacterium chelonae (ATCC 14472) and Mycobacterium immunogenum (ATCC 700505). Mycobacterial cultures were grown overnight at 30° C. (M. immunogenum) or 37° C. (M. chelonae), in a rotary shaking bath in Middlebrook […] with Middlebrook enrichment. A 1:20 dilution of the overnight culture was made into the appropriate test media and inoculated to give a final concentration of 10^6 to 10^7 CFU/ml.

[2] = tested on: Mycobacterium immunogenum (ATCC 700505); experiment: High resolution MIC test, pure culture, 1/10x TSB; format: cell-based; conditions: M. immunogenum, 24 hours at 30° C.
Method: as §1, §2

[3] = Stability in pH 9 buffer solution at 70° C. (HPLC); conditions: for loss of active ingredient: day 56
Method: pH 9 buffer containing 0.069 M boric acid, 0.017 M citric acid, 0.066 M sodium phosphate was prepared in distilled water. Biocide was dosed into the pH 9 buffer solution and stored at 70° C. in a heat block. The samples were examined for active ingredient concentration at the time points after 5 hours, and 1, 3, 7, 23, 30, 35 and 56 days. Initial biocide doses were 166 ppm MI, 199 ppm BIT and 150 ppm BNPD.
The samples were evaluated for active ingredient concentration via High Pressure Liquid Chromatography. Samples were taken from the heating blocks and allowed to cool to room temperature for 30 minutes. The samples were then diluted 1:20 in deionized water by adding 9.5 ml of deionized water to 0.5 grams of the samples in a 25 ml glass sample vial. The samples were mixed for 15 seconds and transferred to HPLC sample vials for analysis.

[4] = tested on: Alcaligenes xylosoxydans #95; experiment: MIC at pH 7.1 or pH 9.0, half strength TSB; format: cell-based; conditions: three days; for MIC: Achromobacter xylosoxidans, 72 h, read-out: Minimum Inhibitory Concentration
Method: (§3) Minimum inhibitory concentration (MIC) studies were conducted to determine the lowest level of biocide required to inhibit growth of bacteria and fungi. Tests were conducted in 96-well microtiter plates. Biocides were added to growth media in the plates and serially diluted to obtain a range of concentrations. Tests were conducted in one-half strength trypticase soy broth (TSB; adjusted to pH 7.1 or pH 9.0). Bacteria and fungi were added to samples at 10^6 colony forming units per ml and incubated at 30° C. for three days. MIC values were determined visually on a growth no-growth basis.

[5] = tested on: Pseudomonas pseudoalcaligenes #15; experiment: MIC at pH 7.1 or pH 9.0, half strength TSB; format: cell-based; conditions: three days; for MIC: Ectopseudomonas oleovorans, 72 h, read-out: Minimum Inhibitory Concentration
Method: as §3

[6] = tested on: Pseudomonas aeruginosa #13; experiment: MIC at pH 7.1 or pH 9.0, half strength TSB; format: cell-based; conditions: three days; for MIC: Pseudomonas aeruginosa, 72 h, read-out: Minimum Inhibitory Concentration
Method: as §3

Aspergillus sp. #120 = experiment: MIC at pH 7.1 or pH 9.0, half strength TSB; format: cell-based; conditions: three days; for MIC: Aspergillus, 72 h, read-out: Minimum Inhibitory Concentration
Method: as §3

Streptomyces sp. #130 = experiment: MIC at pH 7.1 or pH 9.0, half strength TSB; format: cell-based; conditions: three days; for MIC: Streptomyces, 72 h, read-out: Minimum Inhibitory Concentration
Method: as §3

Rhodotorula rubra #156 = experiment: MIC at pH 7.1 or pH 9.0, half strength TSB; format: cell-based; conditions: three days; for MIC: Rhodotorula, 72 h, read-out: Minimum Inhibitory Concentration
Method: as §3

Aspergillus niger #128 = experiment: MIC at pH 7.1 or pH 9.0, half strength TSB; format: cell-based; conditions: three days; for MIC: Aspergillus niger, 72 h, read-out: Minimum Inhibitory Concentration
Method: as §3

Pseudomonas diminuta #99 = experiment: MIC at pH 7.1 or pH 9.0, half strength TSB; format: cell-based; conditions: three days; for MIC: Brevundimonas diminuta, 72 h, read-out: Minimum Inhibitory Concentration
Method: as §3

Alcaligenes faecalis #93 = experiment: MIC at pH 7.1 or pH 9.0, half strength TSB; format: cell-based; conditions: three days; for MIC: Alcaligenes faecalis, 72 h, read-out: Minimum Inhibitory Concentration
Method: as §3

Cn1sccc1=O [MI, 2-methyl-4-isothiazolin-3-one]
Minimum Inhibitory Concentration [1]: 15 ppm active
Minimum Inhibitory Concentration [2]: 50 ppm active
Percent Remaining after: 5 hr [3]: 96%
Percent Remaining after: 1 day [3]: 96%
Percent Remaining after: 3 day [3]: 96%
Percent Remaining after: 7 day [3]: 93%
Percent Remaining after: 23 day [3]: 95%
Percent Remaining after: 30 day [3]: 101%
Percent Remaining after: 35 day [3]: 93%
Percent Remaining after: 56 day [3]: 102%
loss of active ingredient [3]: no loss
Percent Remaining after: 0 [3]: 100%
MIC ([4]; pH 7.1, 30° C.): 12.5 µg/mL (≈ 109 µM)
MIC ([4]; pH 9.0, 30° C.): 25 µg/mL (≈ 217 µM)
MIC ([5]; pH 7.1, 30° C.): 25 µg/mL (≈ 217 µM)
MIC ([5]; pH 9.0, 30° C.): 25 µg/mL (≈ 217 µM)
MIC ([6]; pH 7.1, 30° C.): 12.5 µg/mL (≈ 109 µM)
MIC ([6]; pH 9.0, 30° C.): 6.3 µg/mL (≈ 54.7 µM)
MIC (Aspergillus sp. #120; pH 7.1, 30° C.): 50 µg/mL (≈ 434 µM)
MIC (Aspergillus sp. #120; pH 9.0, 30° C.): 50 µg/mL (≈ 434 µM)
MIC (Streptomyces sp. #130; pH 7.1, 30° C.): 3.2 µg/mL (≈ 27.8 µM)
MIC (Streptomyces sp. #130; pH 9.0, 30° C.): 3.2 µg/mL (≈ 27.8 µM)
MIC (Rhodotorula rubra #156; pH 7.1, 30° C.): 25 µg/mL (≈ 217 µM)
MIC (Rhodotorula rubra #156; pH 9.0, 30° C.): 25 µg/mL (≈ 217 µM)
MIC (Aspergillus niger #128; pH 7.1, 30° C.): 100 µg/mL (≈ 868 µM)
MIC (Aspergillus niger #128; pH 9.0, 30° C.): 100 µg/mL (≈ 868 µM)
MIC (Pseudomonas diminuta #99; pH 7.1, 30° C.): 12.5 µg/mL (≈ 109 µM)
MIC (Pseudomonas diminuta #99; pH 9.0, 30° C.): 6.3 µg/mL (≈ 54.7 µM)
MIC (Alcaligenes faecalis #93; pH 7.1, 30° C.): 3.2 µg/mL (≈ 27.8 µM)
MIC (Alcaligenes faecalis #93; pH 9.0, 30° C.): 6.3 µg/mL (≈ 54.7 µM)

O=c1[nH]sc2ccccc12 [BIT, 1,2-benzisothiazolin-3-one, reference compound]
Minimum Inhibitory Concentration [1]: 63 ppm active
Minimum Inhibitory Concentration [2]: 113 ppm active
Percent Remaining after: 5 hr [3]: 98%
Percent Remaining after: 1 day [3]: 97%
Percent Remaining after: 3 day [3]: 94%
Percent Remaining after: 7 day [3]: 92%
Percent Remaining after: 23 day [3]: 86%
Percent Remaining after: 30 day [3]: 71%
Percent Remaining after: 35 day [3]: 63%
Percent Remaining after: 56 day [3]: 68%
loss of active ingredient [3]: 32%
Percent Remaining after: 0 [3]: 100%
Minimum Inhibitory Concentration ([4]; pH 7.1, 30° C.): 6.3 ppm
Minimum Inhibitory Concentration ([4]; pH 9.0, 30° C.): 25 ppm
Minimum Inhibitory Concentration ([5]; pH 7.1, 30° C.): 12.5 ppm
Minimum Inhibitory Concentration ([5]; pH 9.0, 30° C.): 25 ppm
Minimum Inhibitory Concentration ([6]; pH 7.1, 30° C.): 50 ppm
Minimum Inhibitory Concentration ([6]; pH 9.0, 30° C.): 200 ppm
Minimum Inhibitory Concentration (Aspergillus sp. #120; pH 7.1, 30° C.): 50 ppm
Minimum Inhibitory Concentration (Aspergillus sp. #120; pH 9.0, 30° C.): 400 ppm
Minimum Inhibitory Concentration (Streptomyces sp. #130; pH 7.1, 30° C.): <1.6 ppm
Minimum Inhibitory Concentration (Streptomyces sp. #130; pH 9.0, 30° C.): 3.2 ppm
Minimum Inhibitory Concentration (Rhodotorula rubra #156; pH 7.1, 30° C.): <6.3 ppm
Minimum Inhibitory Concentration (Rhodotorula rubra #156; pH 9.0, 30° C.): 100 ppm
Minimum Inhibitory Concentration (Aspergillus niger #128; pH 7.1, 30° C.): 50 ppm
Minimum Inhibitory Concentration (Aspergillus niger #128; pH 9.0, 30° C.): 200 ppm
Minimum Inhibitory Concentration (Pseudomonas diminuta #99; pH 7.1, 30° C.): 3.2 ppm
Minimum Inhibitory Concentration (Pseudomonas diminuta #99; pH 9.0, 30° C.): 12.5 ppm
Minimum Inhibitory Concentration (Alcaligenes faecalis #93; pH 7.1, 30° C.): <1.6 ppm
Minimum Inhibitory Concentration (Alcaligenes faecalis #93; pH 9.0, 30° C.): 6.3 ppm

Source: patent publication US7699995B2, “Water treatment method” (priority 2006, dated 2010)
